{"source": "patent US6174864A", "about": "“Methods for the prevention or treatment of inflammatory bowel diseases” (CCI Corporation, priority 1996, dated 2001)", "key": {"[1]": {"conditions": "cited from earlier work; for water-solubility: prior-art compounds"}, "Water-solubility": {"assay": "Water-solubility", "type": "physicochemical", "conditions": "ratio to that of Trolox"}, "TNB-induced colitis": {"system": "TNB-induced colitis", "assay": "Effect of repressing lesion in TNB-induced colitis (body weight increase, damage score, wet weight of intestine)", "type": "in vivo, Male Wistar rats", "conditions": "intraabdominal, daily, one week; for Wet weight: intestine, normal 0.58, control 2.6; for Damage score: lesion 0-5 plus adhesion 0-3, normal 0, control 7.25; for Amount of increase in body weight: normal group 93.5, control group 17.5", "excerpt": "(§1) The trinitrobenzenesulfonic acid (TNB)-induced colitis is said to resemble the inflammatory bowel disease of man, particularly Crohn's disease. In this model, the myeloperoxidase (MPO) activity, i.e. an index of the humectation of neutrophil into the tissue, prominently increases in the intestinal mucous membrane from the initial stage of the TNB administration onward and thereafter induces full-thickness inflammations inclusive of edama, erosion, and necrosis of the intestinal duct. In this lesion of the mucous membrane, the thiobarbituraic acid (TAB) reaction substance, i.e. an index of the peroxide of lipid, also increases and the antioxidizing substances such as the SOD activity, the glutathionperoxidase (GPx) activity, and α-tocopherol conversely decrease. By the use of this model, the chromanol glucoside was tested for the effect thereof manifested in repressing the lesion of the TNB-induced colitis.\n(§2) As the chromanol glucoside, the 2-(α-D-glucopyranosyl) methyl-2,5,7,8-tetramethylchroman-6-ol (TMG) represented by the following formula (3) produced by the method described in Example 1 of JP-A-07-118,287 was thoroughly dissolved in water in varying concentrations of 20 mg/ml, 2 mg/ml, and 0.2 mg/ml to obtain injection grade preparations. [drawing 5]\nMale Wistar rats 7 weeks old weighing 190-210 g were divided into groups of six heads. To the rats, after 48 hours' fasting, the TBN dissolved in 50% ethanol in a ratio of 120 mg/ml was intestinally administered at a dose of 1 ml/kg. Thereafter, the TMG preparations obtained as described above were administered to the rats intraabdominally at a dose of […] per head daily. After one week of the administration, the rats were rated for increase of body weight, damage score of the intestine in a 8 cm region on the side of the anus, wet weight, TBA reactive substance, and MPO activity.\n(§3) Of the items of rating mentioned above, the damage score, the TBA reactive substance, and the MPO activity were measured by the following methods.\nThe lesion on the intestinal mucous membrane was classified on the six-point (0-5) scale in accordance with the Morris Classification (G. P. Morris, et al.,: Gastoenterology, 96 (1989) 750-803) and the degree of adhesion to the intestinal mucous membrane was classified on the four-point (0-3) scale (0: absence of adhesion, 1: presence of incontinuous adhesion, 2: presence of continuous adhesion, and 3: presence of clots). The sums of these points were used for rating."}, "[2]": {"system": "TBA reactive substance (index of the peroxide of lipid), TNB-induced colitis", "assay": "TBA reactive substance in intestinal mucous membrane of TNB-induced colitis", "type": "in vivo, Male Wistar rats", "conditions": "intraabdominal, daily, one week, normal 0.13, control 0.53", "excerpt": "as §1, §2\nMale Wistar rats 7 weeks old weighing 190-210 g were divided into groups of six heads. To the rats, after 48 hours' fasting, the TBN dissolved in 50% ethanol in a ratio of 120 mg/ml was intestinally administered at a dose of 1 ml/kg. […]\nas §3\nThe determination was performed in accordance with the method proposed by Ohkawa et al. (H. Ohkawa, et al.: Anal. Biochem., 95 (1979) 351-358). […] The supernatant resulting from the centrifugation was measured for absorbance at a wavelength of 535 nm with a spectrophotometer. […] Based on this calibration curve, the TBA reactive substance of a sample was determined."}, "[3]": {"system": "myeloperoxidase (MPO), TNB-induced colitis", "assay": "MPO activity in intestinal mucous membrane of TNB-induced colitis", "type": "in vivo, Male Wistar rats", "conditions": "intraabdominal, daily, one week, normal 0.19, control 0.74", "excerpt": "as §1, §2\nMale Wistar rats 7 weeks old weighing 190-210 g were divided into groups of six heads. […]\nas §3\nThe determination was carried out in accordance with the o-dianisidine-hydrogen peroxide reaction (J. E. Krrawisz, et al.,: Gastroenterology, 87 (1984) 1344-135). […] In 950 μl of a reaction solution prepared by dissolving 16.7 mg of o-dianidine dihydrochloride in 50 mM of potassium phosphate having a pH of 6.0 and further mixing the resulting solution with 100 μl of an aqueous 0.5% hydrogen peroxide solution, 50 μl of the sample was placed and measured for change in absorbance at a wavelength of 460 nm with a spectrophotometer. […]"}, "ICR type mice": {"system": "ICR type mice", "assay": "Test for acute toxicity", "type": "in vivo", "conditions": "oral, 500 mg/kg in 5% gum arabic solution, one week observation", "experimental": "The preventive and curative agent of this invention for inflammatory bowel diseases was tested for acute toxicity in an effort to confirm the safety thereof. ICR type mice 4-5 weeks old were divided into groups of three heads. The same TMG as mentioned above was suspended as a chromanol glucoside in 5% gum arabic solution. The resultant suspension was orally administered to the rats in a dosage of 500 mg/kg as reduced to TMG, with the rats kept under observation for one week. In this case, 0.3 ml of a 5% gum arabic solution was administered to a control group."}}, "data": [{"smiles": "Cc1c(C)c2c(c(C)c1O)CCC(C)(C(=O)O)O2", "note": "(centres unmarked) [Trolox, 6-hydroxy-2,5,7,8-tetramethylchroman-2-carboxylic acid]", "values": [{"measurement": "water-solubility", "setting": "[1]", "value": "about 15 mg/100 ml"}]}, {"smiles": "Cc1c(C)c2c(c(C)c1O)CCC(C)(CO)O2", "note": "(centres unmarked) [TMC-2-substituted methanol, 2-hydroxymethyl-2,5,7,8-tetramethylchroman-6-ol]", "values": [{"measurement": "water-solubility relative to Trolox", "setting": "Water-solubility", "value": "about 6.3 times"}, {"measurement": "water-solubility", "setting": "[1]", "value": "about 100 mg/100 ml"}]}, {"smiles": "Cc1c(C)c2c(c(C)c1O)CCC(C)(CO[C@H]1O[C@H](CO)[C@@H](O)[C@H](O)[C@H]1O)O2", "note": "(some centres unmarked) [TMG]", "values": [{"measurement": "Wet weight", "setting": "TNB-induced colitis; TMG 0.2 mg/ml", "value": 1.06, "unit": "g/8 cm"}, {"measurement": "Damage score", "setting": "TNB-induced colitis; TMG 0.2 mg/ml", "value": 4.75}, {"measurement": "Amount of increase in body weight", "setting": "TNB-induced colitis; TMG 0.2 mg/ml", "value": 63, "unit": "g/one week"}, {"measurement": "Wet weight", "setting": "TNB-induced colitis; TMG 2 mg/ml", "value": 1.15, "unit": "g/8 cm"}, {"measurement": "Damage score", "setting": "TNB-induced colitis; TMG 2 mg/ml", "value": 3.75}, {"measurement": "Amount of increase in body weight", "setting": "TNB-induced colitis; TMG 2 mg/ml", "value": 64, "unit": "g/one week"}, {"measurement": "Wet weight", "setting": "TNB-induced colitis; TMG 20 mg/ml", "value": 0.86, "unit": "g/8 cm"}, {"measurement": "Damage score", "setting": "TNB-induced colitis; TMG 20 mg/ml", "value": 4}, {"measurement": "Amount of increase in body weight", "setting": "TNB-induced colitis; TMG 20 mg/ml", "value": 57, "unit": "g/one week"}, {"measurement": "TAB reactive substance", "setting": "[2]; TMG 0.2 mg/ml", "value": 0.31, "unit": "ng/mg protein"}, {"measurement": "TAB reactive substance", "setting": "[2]; TMG 2 mg/ml", "value": 0.38, "unit": "ng/mg protein"}, {"measurement": "TAB reactive substance", "setting": "[2]; TMG 20 mg/ml", "value": 0.35, "unit": "ng/mg protein"}, {"measurement": "MPO activity", "setting": "[3]; TMG 0.2 mg/ml", "value": 0.52, "unit": "U/l/mg protein"}, {"measurement": "MPO activity", "setting": "[3]; TMG 2 mg/ml", "value": 0.64, "unit": "U/l/mg protein"}, {"measurement": "MPO activity", "setting": "[3]; TMG 20 mg/ml", "value": 0.48, "unit": "U/l/mg protein"}, {"measurement": "death of mouse in acute toxicity test", "setting": "ICR type mice", "value": "No case of death"}]}, {"smiles": "Cc1c(C)c2c(c(C)c1O)CCC(C)(CCCC(C)CCCC(C)CCCC(C)C)O2", "note": "(stereo not drawn) [vitamin E, α-tocopherol]", "values": [{"measurement": "water-solubility (in words)", "setting": "[1]; prior-art compound", "value": "not soluble in water"}]}]}
